From patent US20230027198A1 (The Rockefeller University, priority 2019, published 2023)

Columns and labels:
acute myeloid leukemia = settings: cited from earlier work
[1] = molecular target: T1, ENL YEATS domain (6×HIS ENL YEATS Domain) binding to H3K9cr peptide (Homo sapiens, UniProt Q03111); assay: TR-FRET ENL Screening Assay, FRET Assay Protocol 1; settings: H3K9cr peptide (aa1-20)
T1 construct: aa1-150; EpiCypher, 15-0069; purchased EpiCypher 15-0069
T1 sequence (Q03111 1-150): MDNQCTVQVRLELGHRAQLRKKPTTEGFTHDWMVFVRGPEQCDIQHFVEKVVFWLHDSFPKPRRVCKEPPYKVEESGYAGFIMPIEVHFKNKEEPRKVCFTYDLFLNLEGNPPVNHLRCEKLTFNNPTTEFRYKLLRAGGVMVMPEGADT
Method: Compounds of the invention were dissolved in DMSO at a concentration of 3 mM with subsequent dilutions in assay buffer (50 mM HEPES PH7.0, 150 mM NaCl, 0.05% BSA, 0.2% Pluronic F-127) such that the assay contained 1% DMSO. […] Low control (LC) wells received 5 uL of assay buffer instead of ENL protein. […] Compound concentration response curves were performed in duplicate over the concentration range of 0.15 nM-30 uM. The response at each compound concentration minus the LC value was converted to percent inhibition of the vehicle control group response (HC-LC). The relationship between the % inhibition and the compound concentration was analyzed using a four parameter logistic equation to estimate lower and upper asymptotes, the compound concentration producing 50% inhibition (IC50 value) and the slope at the mid-point location.

MV4-11 cells = assay: Cell viability assay (CellTiter-Glo), 12 days; assay type: cell-based; settings: Homo sapiens, readouts on days 4, 8 and 12, day not given
Method: Cell-based assays were used to assess the ability of test compounds to reduce cell viability in both MV4:11 (MLL-AF4 MLL) and K562 cells, which were cultured in Iscove's Modified Dulbecco's medium (Gibco, 12440061) containing […]. The assays were conducted over 12 days and the cells being split on days 4 and 8. Compound concentration response curves were performed in duplicate over the concentration range of 0.15 nM-30 uM. On day 0, the compounds or vehicle were plated in a 300 nL directly into 96 well cell culture plates (Corning, 3599) with 5000 cells/well in a volume of 100 uL. Blank wells received cell culture medium. Plates were incubated for 4 days at 37° C. with 5% CO2. On days 4 and day 8 the cells were split and incubated for a further 4 days whilst an aliquot of cells were taken for the CTG readout. For the cell splitting, 270 nL of compounds or DMSO was added to a new 96 well cell culture plate to which 90 uL of medium plus 10 uL of cells from the original assay plate (after mixing) or 100 uL of medium (Blank wells) was added. This was repeated on day 8.
Cell viability was assessed using the CellTiter-Glo® homogeneous luminescent assay kit (Promega, G9243), according to the manufacturer's instructions. This quantifies ATP, which indicates the presence of metabolically active cells. On days 4, 8 and 12, 20 ul of the remaining cell suspension was aspirated into 384-well plate (Corning 3570) to which an equal volume CellTiter-Glo reagent was. Plates were incubated for 10 minute incubation at RT prior to recording the luminescence signal using EnVision plate reader (PE, 2104). The resulting data were analyzed as follows:
Inhibition (%)=100%×(Lumvehicie−Lumsample)/(Lumvehicle−Lumblank)
where vehicle are cells treated with 0.3% DMSO, Blank is culture medium. IC50 determinations were calculated by fitting the curve using XLfit (v5.3.1.3): Y=Bottom+(Top−Bottom)/(1+10^((Log IC50−X)*HillSlope)).

| IC50 [1] | IC50 (MV4-11 cells) | SMILES | antileukemic effects (acute myeloid leukemia; patients with relapsed and refractory AML) | tolerability (acute myeloid leukemia; phase 1 study, patients with solid tumors and AML) |
| --- | --- | --- | --- | --- |
|  |  | CCS(=O)(=O)Nc1ccc(Oc2ccc(F)cc2F)c(-c2cn(C)c(=O)c3[nH]ccc23)c1 [Mivebresib] | showed antileukemic effects | well tolerated |
| 85 nM | 0.094 µM | C[C@H]1CCCN1Cc1cc2cnc(NC(=O)c3ccc4c(CO)nccc4c3)cc2[nH]1 [Example 66] |  |  |
| 160 nM | 0.704 µM | C[C@H]1CCCN1Cc1cc2cnc(NC(=O)c3ccc4c(NCC(F)F)nn(C)c4c3)cc2[nH]1 [Example 95, 3-[(2,2-difluoroethyl)amino]-1-methyl-N-(2-[[(2S)-2-methylpyrrolidin-1-yl]methyl]-1H-pyrrolo[3,2-c]pyridin-6-yl)indazole-6-carboxamide] |  |  |
| 187 nM | 0.077 µM | COCCn1cc(-c2ccc(C(=O)Nc3cc4[nH]c(CN5CCC[C@@H]5C)cc4cn3)cc2)cn1 [Example 51] |  |  |
| 176 nM | 0.183 µM | CNc1nn(C)c2cc(C(=O)Nc3cc4[nH]c(CN5CCC[C@@H]5C)cc4cn3)ccc12 [Example 85] |  |  |
| 208 nM | 0.076 µM | C[C@H]1CCCN1Cc1cc2cnc(NC(=O)c3ccc4cc(=O)[nH]cc4c3)cc2[nH]1 [Example 23, N-(2-[[(2S)-2-methylpyrrolidin-1-yl]methyl]-1H-pyrrolo[3,2-c]pyridin-6-yl)-3-oxo-2H-isoquinoline-7-carboxamide] |  |  |
| 250 nM | 0.301 µM | C[C@H]1CCCN1Cc1cc2cnc(NC(=O)c3ccc(-c4cnn(C)c4)cc3)cc2[nH]1 [Example 21, 4-(1-methylpyrazol-4-yl)-N-(2-[[(2S)-2-methylpyrrolidin-1-yl]methyl]-1H-pyrrolo[3,2-c]pyridin-6-yl)benzamide] |  |  |
| 210 nM | 0.134 µM | C[C@H]1CCCN1Cc1cc2cnc(NC(=O)c3ccc4c(c3)c(N)nn4C)cc2[nH]1 [Example 92] |  |  |
| 158 nM | 0.1 µM | C[C@H]1CCCN1Cc1cc2cnc(NC(=O)c3ccc(-c4cnn(C(F)F)c4)cc3)cc2[nH]1 [Example 50] |  |  |
| 116 nM | 0.058 µM | C[C@H]1CCCN1Cc1cc2cnc(NC(=O)c3ccc4c(C(F)F)nn(C)c4c3)cc2[nH]1 [Example 55] |  |  |
| 125 nM | 0.022 µM | Cc1nn(C)c2cc(C(=O)Nc3cc4[nH]c(CN5CCC[C@@H]5C)cc4cn3)ccc12 [Example 5] |  |  |
| 572 nM | 0.321 µM | CNc1cc2ccc(C(=O)Nc3cc4[nH]c(CN5CCC[C@@H]5C)cc4cn3)cc2cn1 [Example 97] |  |  |
| 186 nM | 0.468 µM | Cc1ncc2cc(C(=O)Nc3cc4[nH]c(CN5CCC[C@@H]5C)cc4cn3)ccn12 [Example 99, 3-methyl-N-(2-[[(2S)-2-methylpyrrolidin-1-yl]methyl]-1H-pyrrolo[3,2-c]pyridin-6-yl)imidazo[1,5-a]pyridine-7-carboxamide] |  |  |
| 272 nM | 0.314 µM | Cc1cc2cc(C(=O)Nc3cc4[nH]c(CN5CCC[C@@H]5C)cc4cn3)ccc2nn1 [Example 57] |  |  |
| 33 nM | 0.454 µM | C[C@H]1CCCN1Cc1cc2cnc(NC(=O)c3ccc4c(N)nccc4c3)cc2[nH]1 [Example 82] |  |  |
| 140 nM | 0.057 µM | C[C@H]1CCCN1Cc1cc2cnc(NC(=O)c3ccc4[nH]nc(C5CC5)c4c3)cc2[nH]1 [Example 48] |  |  |
| 118 nM | 0.365 µM | COCCNc1nn(C)c2cc(C(=O)Nc3cc4[nH]c(CN5CCC[C@@H]5C)cc4cn3)ccc12 [Example 94, 3-[(2-methoxyethyl)amino]-1-methyl-N-(2-[[(2S)-2-methylpyrrolidin-1-yl]methyl]-1H-pyrrolo[3,2-c]pyridin-6-yl)indazole-6-carboxamide] |  |  |
| 78 nM | 0.044 µM | C[C@H]1CCCN1Cc1cc2cnc(NC(=O)c3ccc4c(C5CC5)nn(C)c4c3)cc2[nH]1 [Example 56] |  |  |
| 298 nM | 0.173 µM | C[C@H]1CCCN1Cc1cc2cnc(NC(=O)c3ccc4cnn(C)c4c3)cc2[nH]1 [Example 7] |  |  |

| IC50 [1] | IC50 (MV4-11 cells) | SMILES | antileukemic effects (acute myeloid leukemia; patients with relapsed and refractory AML) | tolerability (acute myeloid leukemia; phase 1 study, patients with solid tumors and AML) |
| --- | --- | --- | --- | --- |
| 133 nM | 0.061 µM | Cc1nn(C)c2ccc(C(=O)Nc3cc4[nH]c(CN5CCC[C@@H]5C)cc4cn3)cc12 [Example 6] |  |  |
| 161 nM | 0.109 µM | C[C@H]1CCCN1Cc1cc2cnc(NC(=O)c3ccc(-c4cn[nH]c4)cc3)cc2[nH]1 [Example 42, N-(2-[[(2S)-2-methylpyrrolidin-1-yl]methyl]-1H-pyrrolo[3,2-c]pyridin-6-yl)-4-(1H-pyrazol-4-yl)benzamide] |  |  |
| 306 nM | 1.22 µM | Cn1ncc2cc(C(=O)Nc3cc4[nH]c(CN5CC6(COC6)C5)cc4cn3)ccc21 [Example 46] |  |  |
| 238 nM | 0.684 µM | C[C@H]1CCN1Cc1cc2cnc(NC(=O)c3ccc4[nH]nc(C5CC5)c4c3)cc2[nH]1 [Example 73, 3-cyclopropyl-N-(2-[[(2S)-2-methylazetidin-1-yl]methyl]-1H-pyrrolo[3,2-c]pyridin-6-yl)-1H-indazole-5-carboxamide] |  |  |
| 97 nM | 0.181 µM | C[C@H]1CCCN1Cc1cc2cnc(NC(=O)c3ccc4c(c3)[nH]c(=O)n4C)cc2[nH]1 [Example 93] |  |  |
| 1400 nM | 0.455 µM | C[C@H]1CCCN1Cc1cc2cnc(NC(=O)c3ccc(-c4ccn(C)n4)cc3F)cc2[nH]1 [Example 32] |  |  |
| 141 nM | 0.623 µM | COc1cc2ccc(C(=O)Nc3cc4[nH]c(CN5CCC[C@@H]5C)cc4cn3)cc2cn1 [Example 88] |  |  |
| 154 nM | 0.184 µM | C[C@H]1CCCN1Cc1cc2cnc(NC(=O)c3ccc(-c4cnn(CC#N)c4)cc3)cc2[nH]1 [Example 52] |  |  |
| 227 nM | 0.122 µM | C[C@H]1CCCN1Cc1cc2cnc(NC(=O)c3ccc(-c4cnn(C)c4)cc3F)cc2[nH]1 [Example 34] |  |  |
| 210 nM | 0.22 µM | Cn1ncc2ccc(C(=O)Nc3cc4[nH]c(CN5CC6(CCOCC6)C5)cc4cn3)cc21 [Example 104] |  |  |
| 209 nM | 0.482 µM | C[C@H]1CCCN1Cc1cc2cnc(NC(=O)c3ccc4c(N(C)C)nn(C)c4c3)cc2[nH]1 [Example 86] |  |  |
| 330 nM | 0.182 µM | C[C@H]1CCCN1Cc1cc2cnc(NC(=O)c3ccc4c(N)nn(C)c4c3)cc2[nH]1 [Example 60] |  |  |
| 125 nM | 0.149 µM | Cc1n[nH]c2cc(C(=O)Nc3cc4[nH]c(CN5CCC[C@@H]5C)cc4cn3)ccc12 [Example 67] |  |  |
| 143 nM | 0.057 µM | Cc1noc2cc(C(=O)Nc3cc4[nH]c(CN5CCC[C@@H]5C)cc4cn3)ccc12 [Example 1, (S)-3-methyl-N-(2-((2-methylpyrrolidin-1-yl)methyl)-1H-pyrrolo[3,2-c]pyridin-6-yl)benzo[d]isoxazole-6-carboxamide] |  |  |
| 144 nM | 0.128 µM | Cc1n[nH]c2ccc(C(=O)Nc3cc4[nH]c(CN5CCC[C@@H]5C)cc4cn3)cc12 [Example 47] |  |  |
| 139 nM | 0.127 µM | Cc1ccc2cc(C(=O)Nc3cc4[nH]c(CN5CCC[C@@H]5C)cc4cn3)ccc2n1 [Example 22] |  |  |
| 1090 nM | 1.46 µM | C[C@H]1CCCN1Cc1cc2cnc(NC(=O)c3ccc4oc(=O)[nH]c4c3)cc2[nH]1 [Example 24, N-(2-[[(2S)-2-methylpyrrolidin-1-yl]methyl]-1H-pyrrolo[3,2-c]pyridin-6-yl)-2-oxo-3H-1,3-benzoxazole-5-carboxamide] |  |  |
| 330 nM | 1.06 µM | C[C@H]1CCCN1Cc1cc2cnc(NC(=O)c3ccc4c(c3)CNC(=O)N4C)cc2[nH]1 [Example 98] |  |  |
| 1590 nM |  | C[C@H]1CCCN1Cc1cc2cnc(NC(=O)c3ccc(-c4c[nH]cn4)cn3)cc2[nH]1 [Example 76] |  |  |
